Measurements taken from US20230041563A1, “N-(1,3,4-OXADIAZOL-2-YL)ARYLCARBOXAMIDES OR SALTS THEREOF, PREPARATION METHODS, HERBICIDAL COMPOSITIONS AND USES THEREOF” (priority 2018, published 2023).
Read-outs that look alike come from different tables or passages of the source.

Legend:
Type in all cases: in vivo
Digitaria sanguinalis = experiment: Weeding effect in post-emergence stage (greenhouse pot spray); settings: for Digitaria sanguinalis (activity level): Table 2, dose 500 g a.i./ha
Text: (§1) The activity level criteria for plant damage (i.e., growth control rate) are as follows:
(§2) The above growth control rates are fresh weight control rates.
(§3) Experiment on weeding effect in post-emergence stage: monocotyledonous and dicotyledonous weed seeds (Descurainia sophia, Capsella bursa-pastoris, Abutilon theophrasti, Galium aparine, Stellaria media, Lithospermum arvense, rorippa indica, Alopecurus aequalis, Beckmannia syzigachne, Sclerochloa dura, Phleum paniculatum, Bromus japonicus, Aegilops tauschii, Phalaris arundinacea, Amaranthus retroflexus, Chenopodiaceae, Commelina communis, Sonchus arvensis, convolvulus arvensis, Cirsium setosum, Solanum nigrum, Acalypha australis, Digitaria sanguinalis, Echinochloa crusgalli, Setaria viridis, Setaria glauca, Leptochloa chinensis, Monochoria vaginalis, Sagittaria trifolia, Scirpus juncoides, Cyperus rotundus, Cyperus iria, Cyperus difformis, Fimbristylis, Portulaca oleracea, Xanthium sibiricum, Pharbitis nil) and major crop seeds (wheat, corn, rice, soybean, cotton, oilseed rape, millet, sorghum, potato, sesame, ricinus) were placed in plastic pots filled with soil, then covered with 0.5-2 cm of soil, allowed to grow in a good greenhouse environment. After 2 weeks of sowing, the test plants were treated in the 2 to 3 leaf stage. The tested compounds of the present invention were respectively dissolved in acetone, then added with Tween 80 and 1.5 liter/ha of emulsifiable concentrate of methyl oleate as synergist, diluted with a certain amount of water to obtain a solution with a certain concentration, and sprayed with a spray tower onto the plants. After the application, the plants were cultured for 3 weeks in the greenhouse, and then the experimental results of the weeding were counted. […]

Echinochloa crusgalli = experiment: as above; settings: for Echinochloa crusgah (activity level): Table 2, dose 500 g a.i./ha
Text: as §1, §2, §3

Setaria viridis = experiment: as above
Text: as §1, §2, §3

Abutilon theophrasti = experiment: as above; settings: Table 2, dose 500 g a.i./ha
Text: as §1, §2, §3

weeds = experiment: Actual control effects and combined effects of mixtures of active ingredients (i) and (ii), stem-leaf treatment, Gowing method; settings: 20 days
Method: According to the actual control effect and the property of the herbicides, the balance of the formula and other factors, the optimal ratio was determined. In the calculation formula: X represents the fresh weight inhibition rate when the active ingredient (i) is used in an amount of P; and Y represents the fresh weight inhibition rate when the active ingredient (ii) is used in an amount of Q. The statistical results are shown in Tables 9-11 below.

[1] = Echinochloa phyllopogon, (ii) 15 g a.i./mu
[2] = Echinochloa phyllopogon, (ii) 0.6 g a.i./mu
[3] = Echinochloa phyllopogon, (ii) 0.6 g a.i./mu, stem-leaf treatment
[4] = Echinochloa phyllopogon, (ii) 8 g a.i./mu

CCOC[S+]([O-])c1c(C(F)(F)F)ccc(C(=O)Nc2nnc(C)o2)c1F (stereo not drawn) [1-444 (R-configuration)]
Digitaria sanguinahs (activity level) (Digitaria sanguinalis; Table 3, dose 500 g a.i./ha): 5 (Level 5: growth control rate is above 85%)
Echinochloa crusgali (activity level) (Echinochloa crusgalli; Table 3, dose 500 g a.i./ha): 5 (Level 5: growth control rate is above 85%)
Setaria viridis (activity level) (Setaria viridis; Table 3, dose 500 g a.i./ha): 5 (Level 5: growth control rate is above 85%)

Cc1nnc(NC(=O)c2ccc(C(F)(F)F)c([S@+](C)[O-])c2F)o1 [1-2 (R-configuration)]
Digitaria sanguinahs (activity level) (Digitaria sanguinalis; Table 3, dose 7.5 g a.i./ha): 0 (Level 0: growth control rate is less than 5%)
Digitaria sanguinahs (activity level) (Digitaria sanguinalis; Table 3, dose 15 g a.i./ha): 1 (Level 1: growth control rate is greater than or equal to 5% and less than 20%)
Digitaria sanguinahs (activity level) (Digitaria sanguinalis; Table 3, dose 30 g a.i./ha): 3 (Level 3: growth control rate is greater than or equal to 40% and less than 60%)
Digitaria sanguinahs (activity level) (Digitaria sanguinalis; Table 3, dose 60 g a.i./ha): 4 (Level 4: growth control rate is greater than or equal to 60% and less than 85%)
Echinochloa crusgali (activity level) (Echinochloa crusgalli; Table 3, dose 7.5 g a.i./ha): 0 (Level 0: growth control rate is less than 5%)
Echinochloa crusgali (activity level) (Echinochloa crusgalli; Table 3, dose 15 g a.i./ha): 1 (Level 1: growth control rate is greater than or equal to 5% and less than 20%)
Echinochloa crusgali (activity level) (Echinochloa crusgalli; Table 3, dose 30 g a.i./ha): 3 (Level 3: growth control rate is greater than or equal to 40% and less than 60%)
Echinochloa crusgali (activity level) (Echinochloa crusgalli; Table 3, dose 60 g a.i./ha): 4 (Level 4: growth control rate is greater than or equal to 60% and less than 85%)
Setaria viridis (activity level) (Setaria viridis; Table 3, dose 7.5 g a.i./ha): 0 (Level 0: growth control rate is less than 5%)
Setaria viridis (activity level) (Setaria viridis; Table 3, dose 15 g a.i./ha): 2 (Level 2: growth control rate is greater than or equal to 20% and less than 40%)
Setaria viridis (activity level) (Setaria viridis; Table 3, dose 30 g a.i./ha): 3 (Level 3: growth control rate is greater than or equal to 40% and less than 60%)
Setaria viridis (activity level) (Setaria viridis; Table 3, dose 60 g a.i./ha): 3 (Level 3: growth control rate is greater than or equal to 40% and less than 60%)

Cc1nnc(NC(=O)c2ccc(C(F)(F)F)c(SCCF)c2F)o1 [Compound 1-48]
Digitaria sanguinalis (activity level) (Digitaria sanguinalis): 5 (Level 5: growth control rate is above 85%)
Echinochloa crusgah (activity level) (Echinochloa crusgalli): 5 (Level 5: growth control rate is above 85%)

CC[S@+]([O-])c1c(C(F)(F)F)ccc(C(=O)Nc2nnc(C)o2)c1F [1-5 (R-configuration)]
Digitaria sanguinahs (activity level) (Digitaria sanguinalis; Table 3, dose 3.75 g a.i./ha): 3 (Level 3: growth control rate is greater than or equal to 40% and less than 60%)
Digitaria sanguinahs (activity level) (Digitaria sanguinalis; Table 3, dose 7.5 g a.i./ha): 4 (Level 4: growth control rate is greater than or equal to 60% and less than 85%)
Digitaria sanguinahs (activity level) (Digitaria sanguinalis; Table 3, dose 15 g a.i./ha): 5 (Level 5: growth control rate is above 85%)
Digitaria sanguinahs (activity level) (Digitaria sanguinalis; Table 3, dose 30 g a.i./ha): 5 (Level 5: growth control rate is above 85%)
Digitaria sanguinahs (activity level) (Digitaria sanguinalis; Table 3, dose 60 g a.i./ha): 5 (Level 5: growth control rate is above 85%)
Echinochloa crusgali (activity level) (Echinochloa crusgalli; Table 3, dose 3.75 g a.i./ha): 4 (Level 4: growth control rate is greater than or equal to 60% and less than 85%)
Echinochloa crusgali (activity level) (Echinochloa crusgalli; Table 3, dose 7.5 g a.i./ha): 5 (Level 5: growth control rate is above 85%)
Echinochloa crusgali (activity level) (Echinochloa crusgalli; Table 3, dose 15 g a.i./ha): 5 (Level 5: growth control rate is above 85%)
Echinochloa crusgali (activity level) (Echinochloa crusgalli; Table 3, dose 30 g a.i./ha): 5 (Level 5: growth control rate is above 85%)
Echinochloa crusgali (activity level) (Echinochloa crusgalli; Table 3, dose 60 g a.i./ha): 5 (Level 5: growth control rate is above 85%)
Setaria viridis (activity level) (Setaria viridis; Table 3, dose 3.75 g a.i./ha): 3 (Level 3: growth control rate is greater than or equal to 40% and less than 60%)
Setaria viridis (activity level) (Setaria viridis; Table 3, dose 7.5 g a.i./ha): 4 (Level 4: growth control rate is greater than or equal to 60% and less than 85%)
Setaria viridis (activity level) (Setaria viridis; Table 3, dose 15 g a.i./ha): 5 (Level 5: growth control rate is above 85%)
Setaria viridis (activity level) (Setaria viridis; Table 3, dose 30 g a.i./ha): 5 (Level 5: growth control rate is above 85%)
Setaria viridis (activity level) (Setaria viridis; Table 3, dose 60 g a.i./ha): 5 (Level 5: growth control rate is above 85%)

COCCC[S@@+]([O-])c1c(C(F)(F)F)ccc(C(=O)Nc2nnc(C)o2)c1F [1-448 (R-configuration)]
Digitaria sanguinahs (activity level) (Digitaria sanguinalis; Table 3, dose 500 g a.i./ha): 5 (Level 5: growth control rate is above 85%)
Echinochloa crusgali (activity level) (Echinochloa crusgalli; Table 3, dose 500 g a.i./ha): 5 (Level 5: growth control rate is above 85%)
Setaria viridis (activity level) (Setaria viridis; Table 3, dose 500 g a.i./ha): 5 (Level 5: growth control rate is above 85%)

Cc1nnc(NC(=O)c2ccc(C(F)(F)F)c([S+]([O-])C3CCCCC3)c2F)o1 (stereo not drawn) [Compound 1-394]
Echinochloa crusgah (activity level) (Echinochloa crusgalli): 5 (Level 5: growth control rate is above 85%)

Cc1nnc(NC(=O)c2ccc(C(F)(F)F)c(SCC#N)c2F)o1 [Compound 1-69]
Echinochloa crusgah (activity level) (Echinochloa crusgalli): 5 (Level 5: growth control rate is above 85%)

CC(C)C[S+]([O-])c1c(C(F)(F)F)ccc(C(=O)Nc2nnco2)c1F (stereo not drawn) [Compound 3-20]
Echinochloa crusgah (activity level) (Echinochloa crusgalli): 5 (Level 5: growth control rate is above 85%)

CCOC[S+]([O-])c1c(C(F)(F)F)ccc(C(=O)Nc2nnc(C)o2)c1F (stereo not drawn) [Compound 1-444]
Echinochloa crusgah (activity level) (Echinochloa crusgalli): 5 (Level 5: growth control rate is above 85%)

Cc1nnc(NC(=O)c2ccc(C(F)(F)F)c(SC#N)c2F)o1 [Compound 1-68]
Echinochloa crusgah (activity level) (Echinochloa crusgalli): 5 (Level 5: growth control rate is above 85%)

Cc1nnc(NC(=O)c2ccc(C(F)(F)F)c(S(=O)(=O)C(C)(C)C)c2F)o1 [Compound 1-138]
Digitaria sanguinalis (activity level) (Digitaria sanguinalis): 5 (Level 5: growth control rate is above 85%)
Echinochloa crusgah (activity level) (Echinochloa crusgalli): 5 (Level 5: growth control rate is above 85%)

Cc1nnc(NC(=O)c2ccc(C(F)(F)F)c([S+]([O-])CCO)c2F)o1 (stereo not drawn) [Compound 1-429]
Abutilion theophrasti (activity level) (Abutilon theophrasti): 5 (Level 5: growth control rate is above 85%)
Digitaria sanguinalis (activity level) (Digitaria sanguinalis): 5 (Level 5: growth control rate is above 85%)
Echinochloa crusgah (activity level) (Echinochloa crusgalli): 5 (Level 5: growth control rate is above 85%)

O=C(O)c1c(Cl)ccc2cc(Cl)cnc12 [Quinclorac]
pest or weed control at 45 g/ha (weeds; 480 h, Echinochloa phyllopogon, (ii) 3 g a.i./mu, stem-leaf treatment, read-out: Control effect of (ii) alone at corresponding dose): 35.2%
pest or weed control at […] (weeds; 480 h, Echinochloa phyllopogon, (ii) 15 g a.i./mu, stem-leaf treatment, read-out: Control effect of (ii) alone at corresponding dose): 52.9%
Control effect of (ii) alone at corresponding dose (weeds; Echinochloa phyllopogon, (ii) 3 g a.i./mu): 35.2%
Control effect of (ii) alone at corresponding dose (weeds; [1]): 52.9%

Oxadiargyl
Control effect of (ii) alone at corresponding dose (weeds; [2]): 3.4%
Control effect of (ii) alone at corresponding dose (weeds; [3]): 3.4%
Control effect of (ii) alone at corresponding dose (weeds; [1]): 35.3%
Control effect of (ii) alone at corresponding dose (weeds; Echinochloa phyllopogon, (ii) 15 g a.i./mu, stem-leaf treatment): 35.3%

CCOc1cc(Oc2ccc(C(F)(F)F)cc2Cl)ccc1[N+](=O)[O-] [Oxyfluorfen]
pest or weed control at 3 g/ha (weeds; 480 h, Echinochloa phyllopogon, (ii) 0.2 g a.i./mu, stem-leaf treatment, read-out: Control effect of (ii) alone at corresponding dose): 6.7%
pest or weed control at 120 g/ha (weeds; 480 h, Echinochloa phyllopogon, (ii) 8 g a.i./mu, stem-leaf treatment, read-out: Control effect of (ii) alone at corresponding dose): 76.5%
Control effect of (ii) alone at corresponding dose (weeds; Echinochloa phyllopogon, (ii) 0.2 g a.i./mu): 6.7%
Control effect of (ii) alone at corresponding dose (weeds; [4]): 76.5%

CCN(C(=O)n1nnn(-c2ccccc2Cl)c1=O)C1CCCCC1 [Fentrazamide]
Control effect of (ii) alone at corresponding dose (weeds; Monochoria vaginalis, (ii) 3 g a.i./mu): 30.2%
pest or weed control at […] (weeds; Pontederia vaginalis, 480 h, Monochoria vaginalis, (ii) 1.5 g a.i./mu, read-out: Control effect of (ii) alone at corresponding dose): 18.3%
pest or weed control at 45 g/ha (weeds; Pontederia vaginalis, 480 h, Monochoria vaginalis, (ii) 3 g a.i./mu, stem-leaf treatment, read-out: Control effect of (ii) alone at corresponding dose): 30.2%

CC(=O)Sc1c(C(F)(F)F)ccc(C(=O)Nc2nnc(C)o2)c1F [Compound 1-70]
Echinochloa crusgah (activity level) (Echinochloa crusgalli): 5 (Level 5: growth control rate is above 85%)

C[C@@H](Oc1ccc(Oc2nc3ccc(Cl)cc3o2)cc1)C(=O)N(C)c1ccccc1F [Metamifop]
Control effect of (ii) alone at corresponding dose (weeds; [2]): 6.8%
Control effect of (ii) alone at corresponding dose (weeds; [3]): 6.8%
Control effect of (ii) alone at corresponding dose (weeds; [4]): 60.9%
Control effect of (ii) alone at corresponding dose (weeds; Echinochloa phyllopogon, (ii) 8 g a.i./mu, stem-leaf treatment): 60.9%

Cc1nnc(NC(=O)c2ccc(C(F)(F)F)c([S+]([O-])CCCO)c2F)o1 (stereo not drawn) [Compound 1-430]
Abutilion theophrasti (activity level) (Abutilon theophrasti): 5 (Level 5: growth control rate is above 85%)
Digitaria sanguinalis (activity level) (Digitaria sanguinalis): 5 (Level 5: growth control rate is above 85%)
Echinochloa crusgah (activity level) (Echinochloa crusgalli): 5 (Level 5: growth control rate is above 85%)

CCC(=O)Nc1ccc(Cl)c(Cl)c1 [Propanil]
pest or weed control at 27 g/ha (weeds; 480 h, Cyperus difformis, (ii) 1.8 g a.i./mu, read-out: Control effect of (ii) alone at corresponding dose): 9.2%
pest or weed control at […] (weeds; 480 h, Cyperus difformis, (ii) 15 g a.i./mu, stem-leaf treatment, read-out: Control effect of (ii) alone at corresponding dose): 46.2%
Control effect of (ii) alone at corresponding dose (weeds; Cyperus difformis, (ii) 15 g a.i./mu): 46.2%

C#CCSc1c(C(F)(F)F)ccc(C(=O)Nc2nnc(C)o2)c1F [Compound 1-43]
Echinochloa crusgah (activity level) (Echinochloa crusgalli): 5 (Level 5: growth control rate is above 85%)
